This note sets out measurements from patent publication US20230002334A1, “TRPM8 MODULATORS” (Givaudan SA, priority 2019, published 2023).

For this assay, the target named is T1, hTRPM8 (Homo sapiens, UniProt Q7Z2W7).
T1 construct: expressed in transfected cells
In words: Assay on TRPM8 modulators: calcium imaging (Fluo-4, Flexstation) in HEK293 cell line stably expressing hTRPM8. The note with it: HEK293 cells stably expressing hTRPM8, calcium influx, sigmoidal dose-response fit; read-out: EC50. Type of assay: cell-based. The procedure:
A HEK293 cell line stably expressing hTRPM8 was generated according to Klein et al., (Chem. Senses 36: 649-658, 2011) and receptor activation was monitored by calcium imaging in a Flexstation. For Ca-imaging assays of TRPM8 channel activation, cells were seeded on day 0 at a density of 12000 cells per well in Dulbecco's modified Eagle medium (DMEM) containing 9% foetal bovine serum in black, clear bottom 96-well plates that had been coated with 0.001% polyethyleneimine (molecular weight=60 000, Acros Organics). On day 2, agonists were evaluated via calcium imaging using Fluo-4. Briefly, growth medium was discarded, and the cells were incubated in the dark for 1 h at 37° C. in 50 μL loading buffer consisting of 2.7 μM Fluo-4 AM (Invitrogen) and […] probenecid (Sigma-Aldrich) in DMEM (without serum). After incubation, the plates were washed five times with 100 μL of assay buffer (in mM: 130 NaCl, 5 KCl, 10 HEPES, 2 CaCl2, and 10 glucose, pH7.4.) and further incubated in the dark at room temperature for 30 min. The cells were then washed five times with 100 μL assay buffer and then calcium influx to serial dilutions of inventive compounds were measured in a Flexstation 3 (Molecular Devices). Receptor activation was initiated following addition of 20 μl of a 10-fold concentrated ligand stock solution, which is also prepared in assay buffer. Fluorescence was continuously monitored for 15 seconds prior to ligand addition and for 105 seconds after ligand addition, for a total of 120 seconds. Maximal receptor activation in relation to solvent control and relative to 31.6 μM menthol is determined. Data from serial dilutions were processed with a KNIME workflow to fit a sigmoidal dose-response curve and to extrapolate EC50 values.

By EC50 is commonly meant the midpoint of the concentration-response curve.

T1 sequence (Q7Z2W7 whole entry): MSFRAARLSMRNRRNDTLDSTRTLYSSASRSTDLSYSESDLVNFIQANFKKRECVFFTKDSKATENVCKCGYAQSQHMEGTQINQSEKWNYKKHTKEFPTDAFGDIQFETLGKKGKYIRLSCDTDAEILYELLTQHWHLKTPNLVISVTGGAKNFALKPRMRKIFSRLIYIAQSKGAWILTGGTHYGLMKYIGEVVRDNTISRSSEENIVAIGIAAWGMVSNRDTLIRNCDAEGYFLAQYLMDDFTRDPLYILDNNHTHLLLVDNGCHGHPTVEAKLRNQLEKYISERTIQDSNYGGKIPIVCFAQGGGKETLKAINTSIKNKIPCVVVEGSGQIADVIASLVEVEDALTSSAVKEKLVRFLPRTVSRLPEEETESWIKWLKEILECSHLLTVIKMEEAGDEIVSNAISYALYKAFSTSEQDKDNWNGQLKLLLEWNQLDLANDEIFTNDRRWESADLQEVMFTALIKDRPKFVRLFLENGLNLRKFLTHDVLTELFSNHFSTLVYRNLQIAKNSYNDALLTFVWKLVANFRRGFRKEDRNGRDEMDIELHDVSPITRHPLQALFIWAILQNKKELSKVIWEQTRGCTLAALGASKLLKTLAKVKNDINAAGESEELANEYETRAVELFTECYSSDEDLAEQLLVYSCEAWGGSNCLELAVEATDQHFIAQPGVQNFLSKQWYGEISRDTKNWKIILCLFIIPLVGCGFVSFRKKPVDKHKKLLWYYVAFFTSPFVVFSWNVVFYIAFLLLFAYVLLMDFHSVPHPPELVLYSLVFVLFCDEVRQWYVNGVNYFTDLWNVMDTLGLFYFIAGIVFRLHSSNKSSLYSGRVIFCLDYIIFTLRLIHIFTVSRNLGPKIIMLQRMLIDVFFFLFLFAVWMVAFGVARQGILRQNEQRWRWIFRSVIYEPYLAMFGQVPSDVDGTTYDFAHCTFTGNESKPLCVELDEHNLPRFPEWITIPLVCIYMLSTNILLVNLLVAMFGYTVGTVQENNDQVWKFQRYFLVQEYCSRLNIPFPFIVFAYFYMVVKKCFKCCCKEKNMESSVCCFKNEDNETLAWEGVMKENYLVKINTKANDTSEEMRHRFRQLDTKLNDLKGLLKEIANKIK

`Cc1cc(C)cc([C@@]2(C)C[C@@H]3[C@@H]([C@@H](C)C2)N(C)OC3(C)C)c1` (racemic) [Compound 87, rac-(3aR,5R,7S,7aR)-5-(3,5-dimethylphenyl)-1,3,3,5,7-pentamethyloctahydrobenzo[c]isoxazole]: the EC50 lay within 0.3 to 1 µM.

On to `Cc1cc(C)cc([C@@]2(C)C[C@@H]3[C@@H]([C@@H](C)C2)N(C(C)C)OC3(C)C)c1` (racemic) [Compound 88, rac-(3aR,5R,7S,7aR)-5-(3,5-dimethylphenyl)-1-isopropyl-3,3,5,7-tetramethyloctahydrobenzo[c]isoxazole], for which the EC50 was 0.3 to 1 µM.

Turning to `Cc1c(Cl)cccc1[C@@]1(C)C[C@@H]2[C@@H]([C@@H](C)C1)N(C)OC2(C)C` (racemic) [Compound 89, rac-(3aR,5R,7S,7aR)-5-(3-chloro-2-methylphenyl)-1,3,3,5,7-pentamethyloctahydrobenzo[c]isoxazole], the EC50 lay in the range of 0.05 to 0.3 µM.

With `Cc1c(Cl)cccc1[C@H]1C[C@@H]2[C@@H]([C@@H](C)C1)N(C(C)C)OC2(C)C` (racemic) [Compound 90, rac-(3aR,5R,7S,7aR)-5-(3-chloro-2-methylphenyl)-1-isopropyl-3,3,7-trimethyloctahydrobenzo[c]isoxazole], the EC50 was 0.05 to 0.3 µM.

On to `C[C@H]1C[C@@](C)(c2cc(F)cc(C(F)(F)F)c2)C[C@@H]2[C@@H]1N(C)OC2(C)C` (racemic) [Compound 91, rac-(3aR,5R,7S,7aR)-5-(3-fluoro-5-(trifluoromethyl)phenyl)-1,3,3,5,7-pentamethyloctahydrobenzo[c]isoxazole], for which the EC50 is 0.3 to 1 µM.

With `C[C@H]1C[C@@](C)(c2cccc(F)c2)C[C@@H]2[C@@H]1N(C)OC2(C)C` (racemic) [Compound 92, rac-(3aR,5R,7S,7aR)-5-(3-fluorophenyl)-1,3,3,5,7-pentamethyloctahydrobenzo[c]isoxazole], the EC50 lay within 0.05 to 0.3 µM.

For the compound `CC(C)c1cccc([C@@]2(C)C[C@@H]3[C@@H]([C@@H](C)C2)N(C)OC3(C)C)c1` (racemic) [Compound 93, rac-(3aR,5R,7S,7aR)-5-(3-isopropylphenyl)-1,3,3,5,7-pentamethyloctahydrobenzo[c]isoxazole], the EC50 is 1 to 35 µM.

As to `COc1cccc([C@@]2(C)C[C@@H]3[C@@H]([C@@H](C)C2)N(C)OC3(C)C)c1` (racemic) [Compound 94, rac-(3aR,5R,7S,7aR)-5-(3-methoxyphenyl)-1,3,3,5,7-pentamethyloctahydrobenzo[c]isoxazole], the EC50 was 0.05 to 0.3 µM.

Regarding `C[C@H]1C[C@@](C)(c2ccc(C(C)(C)C)cc2)C[C@@H]2[C@@H]1N(C)OC2(C)C` (racemic) [Compound 95, rac-(3aR,5R,7S,7aR)-5-(4-(tert-butyl)phenyl)-1,3,3,5,7-pentamethyloctahydrobenzo[c]isoxazole], the EC50 lay within 1 to 35 µM.

As for `C[C@H]1C[C@@H](c2ccc(C(C)(C)C)cc2)C[C@@H]2[C@@H]1N(C)OC2(C)C` (racemic) [Compound 96, rac-(3aR,5R,7S,7aR)-5-(4-(tert-butyl)phenyl)-1,3,3,7-tetramethyloctahydrobenzo[c]isoxazole], the EC50 lay within 1 to 35 µM.

Turning to `CC(C)N1OC(C)(C)[C@@H]2C[C@H](c3ccc(C(C)(C)C)cc3)C[C@H](C)[C@H]21` (racemic) [Compound 97, rac-(3aR,5R,7S,7aR)-5-(4-(tert-butyl)phenyl)-1-isopropyl-3,3,7-trimethyloctahydrobenzo[c]isoxazole], the half-maximal effective concentration (EC50) is 1 to 35 µM.

Take `Cc1cc(Cl)ccc1[C@H]1C[C@@H]2[C@@H]([C@@H](C)C1)N(C(C)C)OC2(C)C` (racemic) [Compound 98, rac-(3aR,5R,7S,7aR)-5-(4-chloro-2-methylphenyl)-1-isopropyl-3,3,7-trimethyloctahydrobenzo[c]isoxazole]: the EC50 lay in the range of 0.05 to 0.3 µM.

On to `COc1cc(F)ccc1[C@@]1(C)C[C@@H]2[C@@H]([C@@H](C)C1)N(C)OC2(C)C` (racemic) [Compound 99, rac-(3aR,5R,7S,7aR)-5-(4-fluoro-2-methoxyphenyl)-1,3,3,5,7-pentamethyloctahydrobenzo[c]isoxazole], for which the EC50 was below 0.05 µM.

In the case of `Cc1cc(F)ccc1[C@@]1(C)C[C@@H]2[C@@H]([C@@H](C)C1)N(C)OC2(C)C` (racemic) [Compound 100, rac-(3aR,5R,7S,7aR)-5-(4-fluoro-2-methylphenyl)-1,3,3,5,7-pentamethyloctahydrobenzo[c]isoxazole], the EC50 is below 0.05 µM.

For `Cc1cc(F)ccc1[C@H]1C[C@@H]2[C@@H]([C@@H](C)C1)N(C)OC2(C)C` (racemic) [Compound 101, rac-(3aR,5R,7S,7aR)-5-(4-fluoro-2-methylphenyl)-1,3,3,7-tetramethyloctahydrobenzo[c]isoxazole], the EC50 was 0.05 to 0.3 µM.

With `CC(C)N1OC(C)(C)[C@@H]2C[C@](C)(c3ccc(F)cc3)C[C@H](C)[C@H]21` (racemic) [Compound 103, rac-(3aR,5R,7S,7aR)-5-(4-fluorophenyl)-1-isopropyl-3,3,5,7-tetramethyloctahydrobenzo[c]isoxazole], the 50% effective concentration (EC50) was below 0.05 µM.

Regarding `COc1ccc([C@@]2(C)C[C@@H]3[C@@H]([C@@H](C)C2)N(C)OC3(C)C)cc1` (racemic) [Compound 104, rac-(3aR,5R,7S,7aR)-5-(4-methoxyphenyl)-1,3,3,5,7-pentamethyloctahydrobenzo[c]isoxazole], the EC50 was 0.3 to 1 µM.

Take `Cc1ccc(Cl)cc1[C@@]1(C)C[C@@H]2[C@@H]([C@@H](C)C1)N(C)OC2(C)C` (racemic) [Compound 105, rac-(3aR,5R,7S,7aR)-5-(5-chloro-2-methylphenyl)-1,3,3,5,7-pentamethyloctahydrobenzo[c]isoxazole]: the concentration giving a half-maximal response (EC50) was below 0.05 µM.

With `Cc1ccc(Cl)cc1[C@H]1C[C@@H]2[C@@H]([C@@H](C)C1)N(C(C)C)OC2(C)C` (racemic) [Compound 106, rac-(3aR,5R,7S,7aR)-5-(5-chloro-2-methylphenyl)-1-isopropyl-3,3,7-trimethyloctahydrobenzo[c]isoxazole], the EC50 is 0.3 to 1 µM.

In the case of `Cc1ccc(F)cc1[C@@]1(C)C[C@@H]2[C@@H]([C@@H](C)C1)N(C)OC2(C)C` (racemic) [Compound 107, rac-(3aR,5R,7S,7aR)-5-(5-fluoro-2-methylphenyl)-1,3,3,5,7-pentamethyloctahydrobenzo[c]isoxazole], the EC50 is below 0.05 µM.

Regarding `Cc1ccc(F)cc1[C@H]1C[C@@H]2[C@@H]([C@@H](C)C1)N(C)OC2(C)C` (racemic) [Compound 108, rac-(3aR,5R,7S,7aR)-5-(5-fluoro-2-methylphenyl)-1,3,3,7-tetramethyloctahydrobenzo[c]isoxazole], the EC50 was 0.3 to 1 µM.

Consider `C[C@H]1C[C@@](C)(c2ccc3c(c2)OCO3)C[C@@H]2[C@@H]1N(C)OC2(C)C` (racemic) [Compound 109, rac-(3aR,5R,7S,7aR)-5-(benzo[d][1,3]dioxol-5-yl)-1,3,3,5,7-pentamethyloctahydrobenzo[c]isoxazole], for which the EC50 lay within 0.3 to 1 µM.

Regarding `C[C@H]1C[C@@](C)(c2ccoc2)C[C@@H]2[C@@H]1N(C)OC2(C)C` (racemic) [Compound 110, rac-(3aR,5R,7S,7aR)-5-(furan-3-yl)-1,3,3,5,7-pentamethyloctahydrobenzo[c]isoxazole], the EC50 lay within 0.3 to 1 µM.

Take `CC(C)CC[C@@]1(C)C[C@@H]2[C@@H]([C@@H](C)C1)N(C(C)C)OC2(C)C` (racemic) [Compound 112, rac-(3aR,5R,S,7aR)-5-isopentyl-1-isopropyl-3,3,5,7-tetramethyloctahydrobenzo[c]isoxazole]: the concentration giving a half-maximal response (EC50) lay within 0.05 to 0.3 µM.

As for `CC(C)=CC[C@]1(C)CC[C@@H]2[C@@H](C1)C(C)(C)ON2C` (racemic) [Compound 113, rac-(3aR,5S,7aR)-1,3,3,5-tetramethyl-5-(3-methylbut-2-en-1-yl)octahydrobenzo[c]isoxazole], the EC50 was 0.3 to 1 µM.

Consider `CC1CC(C)[C@@H]2[C@@H](C1C)C(C)(C)ON2C` (mixture of isomers) [Compound 114, rac-(3aR,7aR)-1,3,3,4,5,7-hexamethyloctahydrobenzo[c]isoxazole], for which the EC50 was 1 to 35 µM.

Turning to `CN1OC(C)(C)[C@@H]2CCC(c3ccccc3)C[C@H]21` (mixture of isomers) [Compound 115, rac-(3aR,7aR)-1,3,3-trimethyl-6-phenyloctahydrobenzo[c]isoxazole], the concentration for a half-maximal effect (EC50) lay within 1 to 35 µM.

With `CCC1CC(CC)[C@@H]2[C@@H](C1)C(C)(C)ON2CC` (mixture of isomers) [Compound 116, rac-(3aR,7aR)-1,5,7-triethyl-3,3-dimethyloctahydrobenzo[c]isoxazole], the EC50 lay within 1 to 35 µM.

Regarding `CC1CC(C)[C@H]2[C@@H](C1C)C(C)(C)ON2C` (mixture of isomers) [Compound 117, rac-(3aR,7aS)-1,3,3,4,5,7-hexamethyloctahydrobenzo[c]isoxazole], the EC50 lay within 1 to 35 µM.

Take `CCC1(CC)C[C@@H]2[C@@H]([C@@H](C)C1)N(C)OC2(C)C` (racemic) [Compound 118, rac-(3aR,7S,7aR)-5,5-diethyl-1,3,3,7-tetramethyloctahydrobenzo[c]isoxazole]: the EC50 is 1 to 35 µM.
